Data on 2 molecules can be found in PMC12038855, “Synthesis of 4-azido sialic acid for testing against Siglec-7 and in metabolic oligosaccharide engineering” (RSC Chemical Biology, 2025).

As usually defined, the Kd is the constant that tells how readily two partners part at equilibrium. Lower therefore signals higher affinity.

The assay has as its target T1, Siglec-7 (Homo sapiens, UniProt Q9Y286).
T1 construct: gene SIGLEC7; recombinant Siglec-7-Fc soluble protein
The assay is described as follows: concentration-independent native mass spectrometry (COIN-CaR-ESI-MS). The format is binding.

T1 sequence (Q9Y286 19-353 limits assumed): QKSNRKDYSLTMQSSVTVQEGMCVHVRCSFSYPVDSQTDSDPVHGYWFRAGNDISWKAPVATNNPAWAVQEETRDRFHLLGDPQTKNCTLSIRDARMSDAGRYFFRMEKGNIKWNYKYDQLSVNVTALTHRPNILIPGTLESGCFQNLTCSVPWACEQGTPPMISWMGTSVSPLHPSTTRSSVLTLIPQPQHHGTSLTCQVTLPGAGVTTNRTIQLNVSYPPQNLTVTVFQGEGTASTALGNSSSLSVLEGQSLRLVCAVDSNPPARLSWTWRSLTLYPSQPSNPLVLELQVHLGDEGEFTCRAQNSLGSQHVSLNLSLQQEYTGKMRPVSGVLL

`CC(=O)N[C@H]1[C@@H](OCCNC(=O)OCc2ccccc2)O[C@H](CO)[C@H](O)[C@@H]1O[C@@H]1O[C@H](CO)[C@H](O)[C@H](O[C@]2(C(=O)O)C[C@H](O)[C@@H](NC(C)=O)[C@H]([C@H](O)[C@H](O)CO)O2)[C@H]1O` [compound 14, 2-(N-benzyloxycarbonylamino)ethyl 5 acetamido-3,5-dideoxy-D-glycero-α-D-galacto-nonulopyranosyl-(2–3)-[(β-D-galactopyranosyl)]-(1–3)-2-acetamido-2-deoxy-α-D-galactopyranoside] displayed a dissociation constant Kd of 88 ± 31 µM.
Next, `CC(=O)N[C@H]1[C@@H](OCCNC(=O)OCc2ccccc2)O[C@H](CO)[C@H](O)[C@@H]1O[C@@H]1O[C@H](CO)[C@H](O)[C@H](O[C@]2(C(=O)O)C[C@H](N=[N+]=[N-])[C@@H](NC(C)=O)[C@H]([C@H](O)[C@H](O)CO)O2)[C@H]1O` [compound 13, 2-(N-benzyloxycarbonylamino)ethyl 5-acetamido-4-azido-3,4,5 trideoxy-D-glycero-α-D-galacto-nonulopyranosyl-(2–3)-[β-D-galactopyranosyl]-(1–3)-2 acetamido-2-deoxy-α-D-galactopyranoside]: 115 ± 44 µM.
